The values that follow are results of earlier work, collected in EP0361645B1, “Organic hydrazine derivatives for pharmaceutical use” (ROHM AND HAAS COMPANY, priority 1988, dated 1990).

This series relates to helminths. As to conditions: stated as known; cited from earlier work.

Turning to `CC(C)(O)CC[C@@H](O)[C@](C)(O)[C@H]1CC[C@@]2(O)C3=CC(=O)[C@@H]4C[C@@H](O)[C@@H](O)C[C@]4(C)[C@H]3CC[C@]12C` [20-hydroxyecdysone, reference compound], the control of helminths result is “controls helminths”.
